From patent publication US6576670B1, “Use of a 5HT2A and 5HT2A/C receptor antagonist for treating snoring and high resistance syndrome of upper anatomical airways” (Sanofi—Synthelabo, priority 1998, dated 2003)
Where two headings read alike, the source gives them in different places.

Tests used:
[1] = system: 5HT2 receptor; settings: in vivo; cited from earlier work
[2] = system: slow wave sleep; assay: sleep study in young healthy subjects; type: in vivo, human; settings: young (18 to 35 years old) healthy subjects
[3] = system: upper airway high resistance syndrome; assay: double blind clinical study versus placebo in upper airway high resistance syndrome; type: in vivo, human; settings: patients; gelatin capsule, for example 5 mg, daily with the evening meal
Procedure: The effect of compound A is determined during a clinical study carried out according to a double blind design versus placebo in which patients with upper airway high resistance syndrome characterized by the presence of respiratory efforts with repeated wakefulness or microwakefulness and clinical symptoms such as diurnal somnolence and/or hypertension and/or fatigue and/or morning headache and/or nycturia, and the like took part. One gelatin capsule containing an active dose of compound A, for example 5 mg, is administered daily with the evening meal.

[4] = target: T1, 5HT1A receptor (Homo sapiens, UniProt P08908); settings: cited from earlier work
T1 sequence (P08908 1-422): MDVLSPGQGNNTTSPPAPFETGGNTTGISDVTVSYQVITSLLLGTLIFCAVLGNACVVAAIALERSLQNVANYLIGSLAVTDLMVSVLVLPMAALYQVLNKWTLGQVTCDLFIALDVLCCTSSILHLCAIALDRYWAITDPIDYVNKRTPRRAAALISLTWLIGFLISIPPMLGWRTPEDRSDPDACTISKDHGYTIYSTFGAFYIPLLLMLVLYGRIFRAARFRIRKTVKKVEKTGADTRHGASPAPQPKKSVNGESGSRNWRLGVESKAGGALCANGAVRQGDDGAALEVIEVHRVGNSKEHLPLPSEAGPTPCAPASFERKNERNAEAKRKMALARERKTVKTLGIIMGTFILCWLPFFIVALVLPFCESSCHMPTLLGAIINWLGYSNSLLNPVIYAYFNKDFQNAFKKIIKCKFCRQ

[5] = target: 5HT1B receptor (Homo sapiens, UniProt P28222); settings: cited from earlier work
Chain of 5HT1B receptor (P28222 whole entry): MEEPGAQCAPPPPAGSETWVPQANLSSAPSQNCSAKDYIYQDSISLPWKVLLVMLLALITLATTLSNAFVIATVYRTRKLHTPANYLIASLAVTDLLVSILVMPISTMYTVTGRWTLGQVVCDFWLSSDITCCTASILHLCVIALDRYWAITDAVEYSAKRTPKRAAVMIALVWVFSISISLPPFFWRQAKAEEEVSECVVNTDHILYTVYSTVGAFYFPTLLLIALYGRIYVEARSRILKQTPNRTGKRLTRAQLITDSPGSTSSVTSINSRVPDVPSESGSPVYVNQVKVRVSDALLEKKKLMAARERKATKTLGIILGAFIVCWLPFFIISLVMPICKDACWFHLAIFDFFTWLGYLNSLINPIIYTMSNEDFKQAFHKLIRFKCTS

[6] = system: 5HT1D receptor; settings: cited from earlier work
[7] = target: T2, 5HT2C receptor (Homo sapiens, UniProt P28335); settings: cited from earlier work
T2 sequence (P28335 33-458): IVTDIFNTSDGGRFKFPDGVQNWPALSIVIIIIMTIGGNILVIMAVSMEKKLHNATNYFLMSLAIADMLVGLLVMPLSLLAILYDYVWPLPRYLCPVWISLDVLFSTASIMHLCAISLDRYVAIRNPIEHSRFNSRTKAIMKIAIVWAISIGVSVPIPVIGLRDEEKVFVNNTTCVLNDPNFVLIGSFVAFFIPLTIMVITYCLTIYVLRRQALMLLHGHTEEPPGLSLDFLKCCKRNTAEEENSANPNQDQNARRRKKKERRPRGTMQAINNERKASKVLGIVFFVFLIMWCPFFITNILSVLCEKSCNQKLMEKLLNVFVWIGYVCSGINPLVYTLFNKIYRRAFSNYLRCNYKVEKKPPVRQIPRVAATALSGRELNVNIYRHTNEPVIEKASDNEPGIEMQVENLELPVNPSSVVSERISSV

[8] = target: 5HT2A receptor (Homo sapiens, UniProt P28223); settings: cited from earlier work
Chain of 5HT2A receptor (P28223 whole entry): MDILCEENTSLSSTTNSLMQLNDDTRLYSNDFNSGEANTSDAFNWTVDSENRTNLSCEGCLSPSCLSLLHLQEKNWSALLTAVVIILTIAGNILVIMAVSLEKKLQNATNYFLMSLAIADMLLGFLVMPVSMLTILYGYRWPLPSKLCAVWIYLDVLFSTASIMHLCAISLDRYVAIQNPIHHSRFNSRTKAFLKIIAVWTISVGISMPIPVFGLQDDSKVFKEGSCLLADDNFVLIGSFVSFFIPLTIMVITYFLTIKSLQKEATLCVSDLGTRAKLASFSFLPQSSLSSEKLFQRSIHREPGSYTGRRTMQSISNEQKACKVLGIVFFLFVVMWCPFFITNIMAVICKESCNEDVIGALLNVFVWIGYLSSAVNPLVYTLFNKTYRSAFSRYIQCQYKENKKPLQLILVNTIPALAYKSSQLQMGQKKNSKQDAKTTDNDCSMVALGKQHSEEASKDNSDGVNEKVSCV

[9] = target: T3, rat stomach fundus (5HT2B) (Rattus norvegicus, UniProt P30994); settings: isolated tissue; indicates 5HT2A specificity versus 5HT2B; cited from earlier work
T3 construct: from tissue; host or cells: rat stomach fundus (isolated tissue)
T3 sequence (P30994 whole entry): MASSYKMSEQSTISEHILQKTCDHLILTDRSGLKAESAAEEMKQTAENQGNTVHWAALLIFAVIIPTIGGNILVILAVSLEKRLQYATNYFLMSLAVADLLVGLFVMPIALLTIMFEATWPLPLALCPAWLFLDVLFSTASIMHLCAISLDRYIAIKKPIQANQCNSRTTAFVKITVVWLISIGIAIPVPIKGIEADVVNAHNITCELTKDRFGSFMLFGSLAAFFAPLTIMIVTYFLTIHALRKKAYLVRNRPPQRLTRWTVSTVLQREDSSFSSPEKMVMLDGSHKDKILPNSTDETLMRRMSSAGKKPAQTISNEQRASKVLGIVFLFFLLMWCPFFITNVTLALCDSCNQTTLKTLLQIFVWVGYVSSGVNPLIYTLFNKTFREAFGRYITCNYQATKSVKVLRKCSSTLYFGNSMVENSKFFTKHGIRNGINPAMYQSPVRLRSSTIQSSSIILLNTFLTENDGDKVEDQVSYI

[10] = system: 5HT2 receptor; settings: rodents; cited from earlier work
[11] = system: spinal 5HT2 receptors; settings: newborn rat tissue preparations in vitro, cited from earlier work
[12] = system: 5HT2 receptors; settings: administered systemically; English bulldog; cited from earlier work
[13] = system: 5HT2 receptor; settings: rats; cited from earlier work
[14] = decerebrated newborn cats; high doses; cited from earlier work
[15] = decerebrated newborn rats; cited from earlier work

In the case of `CN(C)CCSc1nc2ccccc2cc1-c1ccccc1` [ICI 169 369], the “slow wave sleep time” value [1] is given as “regulate or increase”.

With `CN(C)CCO/N=C(/C=C/c1ccc(O)cc1)c1ccccc1F` [compound A, (1Z,2E)-1-(2-fluorophenyl)-3-(4-hydroxyphenyl)prop-2-en-1-one-O-(2-dimethylaminoethyl)oxime hemifumarate] the paradoxical sleep [2] was “not being modified”, the “stages 1 and 2 of slow wave sleep” value [2] was “slightly reduced” and the “duration of stages 3 and 4 of slow wave sleep” value ([2]; from the dose of 1 mg) was “doubling”. For the same molecule, the clinical symptoms [3] was “reduction”, the “number of wakings or microwakings” value [3] was “marked reduction” and the respiratory efforts [3] was “marked reduction”. For the same molecule, the “affinity for the 5HT1A receptor” value [4] was “no affinity”, the “affinity for the 5HT1B receptor” value [5] was “no affinity” and the “affinity for the 5HT1D receptor” value [6] was “no affinity”. The “affinity for the 5HT2C receptor” value [7] was “moderate affinity”, the “antagonism of the 5HT2A receptor” value [8] was “antagonist which is specific for the 5HT2A receptor” and the “activity on rat stomach fundus” value [9] was “absence of activity”. The “binding in the brain” value [10] was “predominantly binds to the regions of the brain containing the 5HT2 receptor”, the “depressant effect of 5-hydroxytryptamine on the activity of the hypoglossal nerve” value [11] was “inhibits” and the “tonic cervical activity induced by 5-hydroxytryptamine” value ([11]; pretreatment) was “prevents or significantly reduces”.

For `Cc1nc2sccn2c(=O)c1CCN1CCC(=C(c2ccc(F)cc2)c2ccc(F)cc2)CC1` [ritanserin], the “slow wave sleep time” value [1] is given as “regulate or increase”, the “activity of the diaphragm” value [12] is given as “slight reduction” and the “activity of the dilatory muscle of the upper respiratory tracts” value [12] is given as “marked reduction”.

In the case of `O=C(c1ccc(F)cc1)C1CCN(CCn2c(=O)[nH]c3ccccc3c2=O)CC1` [ketanserin], the “apnea induced by 5-HT” value [13] is given as “inhibit” and the “increase in pulmonary resistance induced by 5-HT” value [13] is given as “inhibit”.

In the case of `NCCc1c[nH]c2ccc(O)cc12` [5-hydroxytryptamine], the apnea after administration [14] is given as “induced prolonged central apneas” and the apnea after administration [15] is given as “no apnea”.
